Results on 15 compounds are retold here after paper PMC7589200, “Identification of Putative Non-Substrate-Based XT-I Inhibitors by Natural Product Library Screening” (Biomolecules, 2020).

One assay addresses T1, recombinant human XT-I (Homo sapiens, UniProt Q86Y38).
T1 sequence (Q86Y38 252-959 limits assumed): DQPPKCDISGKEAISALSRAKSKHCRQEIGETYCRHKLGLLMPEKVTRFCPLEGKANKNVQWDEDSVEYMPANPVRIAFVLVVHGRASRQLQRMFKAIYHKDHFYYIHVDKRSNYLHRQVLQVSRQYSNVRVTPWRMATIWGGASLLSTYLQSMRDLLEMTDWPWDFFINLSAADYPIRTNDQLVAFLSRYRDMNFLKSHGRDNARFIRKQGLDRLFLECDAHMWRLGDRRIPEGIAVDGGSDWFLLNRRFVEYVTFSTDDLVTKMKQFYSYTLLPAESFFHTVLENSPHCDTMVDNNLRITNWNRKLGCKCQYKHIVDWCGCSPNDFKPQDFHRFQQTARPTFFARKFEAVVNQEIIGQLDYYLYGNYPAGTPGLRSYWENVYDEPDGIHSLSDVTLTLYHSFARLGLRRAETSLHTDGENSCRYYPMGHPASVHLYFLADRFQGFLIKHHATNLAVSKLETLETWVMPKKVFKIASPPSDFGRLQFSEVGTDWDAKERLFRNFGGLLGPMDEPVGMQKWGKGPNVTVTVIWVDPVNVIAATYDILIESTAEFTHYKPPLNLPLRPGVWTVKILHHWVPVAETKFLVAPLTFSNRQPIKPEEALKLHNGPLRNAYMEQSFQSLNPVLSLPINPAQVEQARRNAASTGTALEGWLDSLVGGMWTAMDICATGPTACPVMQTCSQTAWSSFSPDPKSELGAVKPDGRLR
The assay is described as follows: NP library inhibitor screening, UPLC/ESI-MS/MS XT-I assay. Type of assay: biochemical.

The test system of the next assay is XYLT1 mRNA expression. The assay can be described thus: XYLT1 mRNA expression in NHDFs by qRT-PCR. It is filed as cell-based, human. The note with it: TGF-β1 5 μg/L, 48 h. As for the experimental part: (§1) A former established cell culture model was utilized to investigate the effect of putative XT-I inhibitors on NHDFs. The inhibition studies were carried out with final inhibitor concentrations of 0.5, 1.0, 2.0 or 4.0 μM diluted in fully supplemented DMEM. In brief, unless otherwise stated, NHDFs were cultivated with a low density of 50 cells per mm^2 on a hard tissue culture substrate (100 × 20 mm dish) in fully supplemented DMEM with or without additional TGF-β1 (5 μg/L) for 24 h, promoting their transdifferentiation into proto-myofibroblasts. Thereafter, cells were treated with celastrol or amphotericin B in the presence or absence of TGF-β1 (5 μg/L) for an additional 48 h. Negative controls treated with solvent only were included for every sampling time. The final DMSO content of 0.04% (v/v) was kept constant in all inhibition experiments. […]
(§2) The RNA extraction from cell lysates and cDNA synthesis for mRNA and miRNA expression analysis were performed as described previously.
(§3) Quantitative real-time polymerase chain reaction (qRT-PCR) analysis using a LightCycler 480 Instrument II system (Roche, Basel, Swiss) was performed as previously described. The qRT-PCR experiments were conducted with three biological and three technical replicates per donor-derived primary cell culture, unless otherwise stated. The intron-spanning primer sequences used are listed in [7] and Table 1. The geometric mean of the expression levels of the housekeeping genes SDHA, RPL13A and B2M were calculated for expression normalization. The relative target gene mRNA expressions were determined by the ΔΔCT method considering the PCR efficiency. All normalized gene expression levels shown were referred to the respective target gene expression of one primary cell culture sample for the relative comparison of multiple biological samples per experiment and figures.

In the next assay the test system is XYLT2 mRNA expression. The assay can be described thus: XYLT2 mRNA expression in NHDFs by qRT-PCR. Type of assay: cell-based, human. The note with it: TGF-β1 (5 μg/L) supplementation, 48 h. As for the experimental part:
(§4) A former established cell culture model was utilized to investigate the effect of putative XT-I inhibitors on NHDFs. The inhibition studies were carried out with final inhibitor concentrations of 0.5, 1.0, 2.0 or 4.0 μM diluted in fully supplemented DMEM. In brief, unless otherwise stated, NHDFs were cultivated with a low density of 50 cells per mm^2 on a hard tissue culture substrate (100 × 20 mm dish) in fully supplemented DMEM with or without additional TGF-β1 (5 μg/L) for 24 h, promoting their transdifferentiation into proto-myofibroblasts. Thereafter, cells were treated with celastrol or amphotericin B in the presence or absence of TGF-β1 (5 μg/L) for an additional 48 h. Negative controls treated with solvent only were included for every sampling time. The final DMSO content of 0.04% (v/v) was kept constant in all inhibition experiments.
as §2, §3

The next assay deals with TGFB1 mRNA expression. The assay is described as follows: TGFB1 mRNA expression in NHDFs by qRT-PCR. The note with it: TGF-β1 5 μg/L, 48 h. It is filed as cell-based, human. As for the experimental part:
as §4, §2
(§5) Quantitative real-time polymerase chain reaction (qRT-PCR) analysis using a LightCycler 480 Instrument II system (Roche, Basel, Swiss) was performed as previously described. […] The geometric mean of the expression levels of the housekeeping genes SDHA, RPL13A and B2M were calculated for expression normalization. The relative target gene mRNA expressions were determined by the ΔΔCT method considering the PCR efficiency. […]

Another assay deals with SMAD7 mRNA expression. The assay is described as follows: SMAD7 mRNA expression in NHDFs by qRT-PCR. Type of assay: cell-based, human. The following applies: TGF-β1 5 μg/L, 48 h. As for the experimental part:
as §1, §5

For the next assay, the system named is miRNA-21. The assay is described as follows: miRNA-21 expression in NHDFs, TaqMan advanced miRNA assay. It is filed as cell-based, human. The following applies: TGF-β1 5 µg/L, 48 h, serum-starved NHDFs. The procedure: as §2
The TaqMan advanced miRNA Assay (Thermo Fisher Scientific; Waltham, Massachusetts, United States) was performed, according to the manufacturer’s instructions, for the miRNA expression analyses. The primer assays miRNA-21 (477975_mir) and miRNA-191 (477952_mir) were used. The expression level of miRNA-21 determined was normalized to internal housekeeping gene expression of miRNA-191 via the ΔΔCT method.

The mark [1] stands for this setting: Table 2, 50 μM inhibitor, relative to control (DMSO = 100%), technical duplicates.
[2] abbreviates: Table S1, 50 μM inhibitor, relative to negative control containing DMSO, technical duplicates.

Where two headings read alike, the source gives them in different places.

Take `COc1cc(/C=C/C(=O)CC(=O)/C=C/c2ccc(O)c(OC)c2)ccc1O` [Compound 86, Curcumin]: the “XT-I Activity [%]” value at recombinant human XT-I (setting [1]) came to 43%. For the same compound, at recombinant human XT-I (setting [2]), the remaining activity at 50 µM came to 43%. With `Clc1ccc(C(Cn2ccnc2)OCc2ccsc2Cl)c(Cl)c1` (stereo not shown) [Compound 87, Tioconazole], at recombinant human XT-I (setting [2]), the remaining activity at 50 µM is 136%.

Consider `Clc1ccc(COC(Cn2ccnc2)c2ccc(Cl)cc2Cl)c(Cl)c1` (stereo not shown) [Compound 88, Miconazole Nitrate], for which the remaining activity at 50 µM on recombinant human XT-I (setting [2]) is 149%. Still for that read-out and setting: next, `Cc1nnc(NS(=O)(=O)c2ccc(N)cc2)s1` [Compound 89, Sulfamethizole]: 111%; `CC1(C)[C@H](C(=O)O)N2C(=O)C[C@H]2S1(=O)=O` [Compound 90, Sulbactam]: 138%. For the compound `COc1cc(NS(=O)(=O)c2ccc(N)cc2)nc(OC)n1` [Compound 91, Sulphadimethoxine], the “XT-I Activity [%]” value at recombinant human XT-I (setting [2]) was 132%. As for `Cl.N=c1ccn2c(n1)O[C@H]1[C@H](O)[C@@H](CO)O[C@H]12` [Compound 92, Cyclocytidine HCl], the “XT-I Activity [%]” value at recombinant human XT-I (setting [2]) was 142%. Still for that read-out and setting: next, `Cl.Nc1ncnc2nc[nH]c12` [Compound 93, Adenine HCl]: 146%. On to `COc1cc(CNC(=O)CCCC/C=C/C(C)C)ccc1O` [Compound 94, Capsaicin (Vanilloid)], for which the “XT-I Activity [%]” value at recombinant human XT-I stood at 135%. As for `C[C@@H]1C(=O)O[C@H]2C[C@@]34[C@H]5C[C@@H](C(C)(C)C)[C@]36[C@@H](OC(=O)[C@@H]6O)O[C@@]4(C(=O)O5)[C@]21O` [Compound 95, Ginkgolide A], at recombinant human XT-I (setting [2]), the remaining activity at 50 µM was found to be 150%. Regarding Bleomycin sulfate [Compound 96], the “XT-I Activity [%]” value on recombinant human XT-I (setting [2]) was found to be 149%.

Take Ginkgolide B [Compound 69]: on recombinant human XT-I (setting [2]), the “XT-I Activity [%]” value is recorded as 100%. Consider “Oxytetracycline (Terramycin) [Compound 74]”, for which the “XT-I Activity [%]” value on recombinant human XT-I (setting [1]) and on recombinant human XT-I (setting [2]) was 17% throughout. On to “TGF-β1: Recombinant human TGF-β1, pro-fibrotic mediator used to stimulate fibroblasts”, for which the “increase in XYLT1 mRNA expression relative to untreated control” value in the assay with XYLT1 mRNA expression (Figure 5A–D) was found to be 3.7 ± 0.3 fold; with XYLT1 mRNA expression (Figure 5E), 4.6 ± 0.2 fold. Also, the “XYLT2 mRNA expression level” value with XYLT2 mRNA expression is “unaffected”. The “TGFB1 mRNA expression (autoinduction) relative to control” value with TGFB1 mRNA expression was determined as 1.1 ± 0.08 fold. In addition, the “SMAD7 mRNA expression relative to control” value in the assay on SMAD7 mRNA expression was 1.8 ± 0.2 fold. Moreover, the “miRNA-21 expression relative to untreated” value in the assay with miRNA-21 was 2.5 ± 0.2 fold. Consider Vitamin B12 [Compound 65], for which the “XT-I Activity [%]” value on recombinant human XT-I (setting [2]) was 94%.
